Measured values reported in patent US10316039B2, “P2X3 and/or P2X2/3 compounds and methods” (Asana Biosciences, LLC, priority 2013, dated 2019).

Legend:
P2X3 = target: T1, P2X3 (UniProt P56373); assay: P2X3 FLIPR intracellular calcium assay; assay type: cell-based; settings: agonist at EC75, species (human or rat) not given
T1 sequence (P56373 1-397): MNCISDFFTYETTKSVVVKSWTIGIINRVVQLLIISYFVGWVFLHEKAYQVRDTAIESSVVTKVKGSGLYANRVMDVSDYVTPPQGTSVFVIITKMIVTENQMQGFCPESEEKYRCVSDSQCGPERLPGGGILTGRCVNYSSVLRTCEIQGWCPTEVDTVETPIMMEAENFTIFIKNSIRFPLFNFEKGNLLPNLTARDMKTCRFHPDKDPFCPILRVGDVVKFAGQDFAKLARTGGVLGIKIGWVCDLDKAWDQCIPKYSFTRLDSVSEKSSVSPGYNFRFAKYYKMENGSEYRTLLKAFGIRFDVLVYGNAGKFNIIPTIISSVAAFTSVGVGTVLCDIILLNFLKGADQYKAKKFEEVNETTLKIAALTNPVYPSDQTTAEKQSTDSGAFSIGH
Excerpt: The FLIPR® assay utilizes cells which express human or rat P2X3 or P2X2/3 receptors. […] The PCR product obtained containing the protein coding sequence of rat P2X2 was cloned into EcoRV-digested and dephosphorylated vector pIRES-puro3 within the multiple cloning site (MCS). See, FIG. 1A.
Rat P2X3 (NCBI Accession No: X91167) was amplified by PCR from rat brain cDNA. The PCR product obtained containing the protein coding sequence of rat P2X3 was cloned into EcoRV-digested and dephosphorylated vector pCDNA-Hygro within the multiple cloning site (MCS) (FIG. 1B). Rat P2X3 cloned into pcDNA-Hygro was then subcloned into pcDNA-5/TO at HindIII (5′) and XhoI (3′) sites within the multiple cloning site (MCS) of the vector (FIG. 1C).
(§1) Transfection was carried out using super-coiled constructs (purified using QIAGEN kit) in antibiotic free, serum free DMEM using Lipofectamine® 2000 (Invitrogen) transfection agent. The DNA constructs rat P2X2 in pIRES-Puro3 and rat P2X3 in pCDNA5/TO were co-transfected into TRex293 cells in order to generate the rP2X2/3 stable line. 50 μg/mL hygromycin (Invitrogen) and 0.5 μg/mL puromycin (Fermentek) were used for selection of stable clones of rP2X2/3. Rat P2X3 in pCDNA5/TO DNA construct was transfected to CHO-TRex cells to generate the rP2×3 stable line and 500 μg/mL hygromycin (Invitrogen) was used as selection antibiotic. Transfected stable colonies were then functionally verified and robust clones suitable for assay were clonally purified through dilutions.
(§2) Cryo-vial containing 6×10^6 cells (human P2X3-HEK/human P2X2/3-TRex293/rat P2X2/3-TRex293/rat P2X3 TRex-CHO) was thawed in a 37° C. water bath. Cells were suspended in 20 mL of respective cell plating media (See annexure for composition) in a 50 mL centrifuge tube. The cell viability was checked with the help of Trypan Blue dye. Upon washing, cells were plated in a black 384-well clear bottomed, sterile poly-D-lysine coated plate such that, each well contained 10,000 cells (15,000/well for hP2X3) in 30 μL cell plating media. The plate was incubated in a 5% CO2 incubator at 37° C. for 24 h.
(§3) The next day, prior to the assay, the cell plating media was removed from each well by decanting and gentle tapping. Thirty μL of FLIPR Calcium 4 dye solution was added to each well. The plate was incubated at 37° C. for 45 min (60 min for hP2X3). The plate was next equilibrated at room temperature for 15 minutes before placing it in a 384 well FLIPR for the assay.
Dilutions were mixed with assay buffer just before performing the assay.
(§4) Compounds were added to the respective wells of the assay-ready cell plate with the help of the FLIPR and fluorescence readings were captured for 5 min to observe any possible agonistic property of the compounds. The plate was then incubated at room temperature for 15 min. The cells were stimulated with respective agonist EC75 concentration and the fluorescence readings were captured for another 5 min by FLIPR. The difference in fluorescence readings in presence of the compounds were compared with that of the control wells (wells having no compound) to calculate the inhibitory potency of the compounds. The IC50 values of the compounds were determined using the Graph pad Prism software.
(vi) Dye Solution Composition • 1×FLIPR Calcium 4 dye in assay buffer (Molecular devices Cat# R8141) • 1.8 mM Probenecid (Sigma Cat# P8761) • pH adjusted to 7.4

P2X2/3 = target: T2, P2X2/3 (Homo sapiens, UniProt P56373+Q9UBL9); assay: P2X2/3 FLIPR intracellular calcium assay; assay type: cell-based; settings: agonist at EC75, species (human or rat) not given
T2 sequence (Q9UBL9 1-471): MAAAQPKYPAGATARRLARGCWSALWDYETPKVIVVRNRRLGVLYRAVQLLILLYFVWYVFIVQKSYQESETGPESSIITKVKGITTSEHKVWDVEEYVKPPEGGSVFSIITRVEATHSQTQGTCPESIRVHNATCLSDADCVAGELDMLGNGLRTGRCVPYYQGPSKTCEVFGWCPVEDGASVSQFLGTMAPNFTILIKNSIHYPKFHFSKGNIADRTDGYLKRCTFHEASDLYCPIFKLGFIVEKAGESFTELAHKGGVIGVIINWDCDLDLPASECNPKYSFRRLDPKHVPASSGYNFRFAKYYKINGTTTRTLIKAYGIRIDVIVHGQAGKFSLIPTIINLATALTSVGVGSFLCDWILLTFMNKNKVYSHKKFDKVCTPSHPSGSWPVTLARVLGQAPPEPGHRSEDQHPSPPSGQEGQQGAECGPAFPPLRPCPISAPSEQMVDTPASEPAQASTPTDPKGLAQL
T2 sequence (P56373 1-397): T1 sequence (P56373 1-397)
Excerpt: The FLIPR® assay utilizes cells which express human or rat P2X3 or P2X2/3 receptors. Recombinant cells expressing hP2X3 (Cat#6188) and hP2X2/3 (Cat#6179) were procured from Chantest Corp. Rat P2X2 (NCBI Accession No: U14414) was amplified by PCR from PC12 cDNA (a rat adrenal medulla cell line). The PCR product obtained containing the protein coding sequence of rat P2X2 was cloned into EcoRV-digested and dephosphorylated vector pIRES-puro3 within the multiple cloning site (MCS). See, FIG. 1A.
as §1, §2, §3
Compounds were dissolved in DMSO and serially diluted following 11 point half log (3.16 fold) dilution with a starting concentration of 2 mM. Dilutions were mixed with assay buffer just before performing the assay.
as §4
(ii) Cell Plating Media for hP2X3-HEK and hP2X2/3-TRex293 Cells • DMEM/F12 (1:1) HAM media (Invitrogen; Cat#11039) • 1×NEAA (Invitrogen; Cat#11140) • 25 mM HEPES (Invitrogen; Cat#15630) • 1 mM sodium pyruvate (Invitrogen; Cat#11360) • 10% tetracycline negative FBS (PAA; Cat# A15-209) • 1 μg/mL doxycycline (Clontech; Cat#63131) [for hP2X2/3-TRex293 cells only]
(iii) Cell Plating Media for rP2X2/3-TRex293 Cells • DMEM media (Invitrogen; Cat#11965) • 25 mM HEPES (Invitrogen; Cat#15630) • 10% tetracycline negative FBS (PAA; Cat# A15-209) • 1 μg/mL Doxycycline (Clontech; Cat#63131)
(v) Assay Buffer Composition • HBSS (Invitrogen Cat#14025) • 20 mM HEPES (Invitrogen Cat#15630) • 0.01% F127 (Sigma Cat# P2443) • 1.8 mM CaCl2 (Sigma Cat# C5080) • pH adjusted to 7.4 […]

`Cc1ccc(-c2cnc3c(-n4nncc4C(F)F)cc(C(=O)N[C@@H](C)c4nnco4)cn23)s1` [Example 14, (S)—N-(1-(1,3,4-Oxadiazol-2-yl)ethyl)-8-(5-(difluoromethyl)-1H-1,2,3-triazol-1-yl)-3-(5-methylthiophen-2-yl)imidazo[1,2-a]pyridine-6-carboxamide] gave an IC50 (P2X3) of 1 to 100 nM and an IC50 (P2X2/3) of 100 to 1000 nM.

In the case of `Cc1ccccc1-c1cnc2c(N3CCC(C)CC3)cc(C(=O)N[C@@H](C)c3nnc[nH]3)cn12` [Example 15, (S)—N-(1-(4H-1,2,4-Triazol-3-yl)ethyl)-8-(4-methylpiperidin-1-yl)-3-(o-tolyl)imidazo[1,2-a]pyridine-6-carboxamide], the IC50 (P2X3) is reported as 100 to 1000 nM and the IC50 (P2X2/3) is reported as 1000 to 10000 nM.

For `Cc1ccc(CNC(=O)c2cc(-n3nnnc3C3CC3)c3ncc(-c4ccc(C)s4)n3c2)cn1` [Example 16, 8-(5-Cyclopropyl-1H-tetrazol-1-yl)-N-((6-methylpyridin-3-yl)methyl)-3-(5-methylthiophen-2-yl)imidazo[1,2-a]pyridine-6-carboxamide], the IC50 (P2X3) was > 10000 nM and the IC50 (P2X2/3) was 100 to 1000 nM.

Compound `Cc1ccc(CNC(=O)c2cc(-n3nnnc3CO)c3ncc(-c4ccc(C)s4)n3c2)cn1` [Example 17, 8-(5-(Hydroxymethyl)-1H-tetrazol-1-yl)-N-((6-methylpyridin-3-yl)methyl)-3-(5-methylthiophen-2-yl)imidazo[1,2-a]pyridine-6-carboxamide] has an IC50 (P2X3) of 100 to 1000 nM and an IC50 (P2X2/3) of 100 to 1000 nM.

`Cc1ccc(CNC(=O)c2cc(-n3nnnc3C(F)F)c3ncc(-c4ccc(C)s4)n3c2)cn1` [Example 18, 8-(5-(Difluoromethyl)-1H-tetrazol-1-yl)-N-((6-methylpyridin-3-yl)methyl)-3-(5-methylthiophen-2-yl)imidazo[1,2-a]pyridine-6-carboxamide] showed an IC50 (P2X3) of 1 to 100 nM and an IC50 (P2X2/3) of 1 to 100 nM.

Work on `Cc1ccc(-c2cnc3c(N(C)C(=O)C(C)C)cc(C(=O)N[C@@H](C)c4nnc[nH]4)cn23)s1` [Example 20, (S)—N-(1-(4H-1,2,4-Triazol-3-yl)ethyl)-8-(N-methylisobutyramido)-3-(5-methylthiophen-2-yl)imidazo[1,2-a]pyridine-6-carboxamide] yielded an IC50 (P2X3) of 1 to 100 nM and an IC50 (P2X2/3) of 100 to 1000 nM.

`CCc1nnc(-c2cc(C(=O)NCc3ccc(C)nc3)cn3c(-c4ccc(C)s4)cnc23)o1` [Example 21] gave an IC50 (P2X3) of 1 to 100 nM and an IC50 (P2X2/3) of 100 to 1000 nM.

With `CCc1cnnn1-c1cc(C(=O)N[C@@H](C)c2nnc[nH]2)cn2c(-c3ccc(C)s3)cnc12` [Example 23] the IC50 (P2X3) was 1 to 100 nM and the IC50 (P2X2/3) was 100 to 1000 nM.

`CCc1cnnn1-c1cc(C(=O)NCc2cnc(C)cn2)cn2c(-c3ccc(C)s3)cnc12` [Example 24] showed an IC50 (P2X3) of 1 to 100 nM and an IC50 (P2X2/3) of 1 to 100 nM.

In the case of `Cc1ccc(CNC(=O)c2cc(-n3nncc3C3CC3)c3ncc(-c4ccc(C)s4)n3c2)cn1` [Example 25], the IC50 (P2X3) is reported as 1 to 100 nM and the IC50 (P2X2/3) is reported as 1 to 100 nM.

`Cc1ccc(-c2cnc3c(-n4nncc4C(F)(F)F)cc(C(=O)N[C@@H](C)c4nnc[nH]4)cn23)s1` [Example 26] was tested, and the IC50 (P2X3) was 1 to 100 nM and the IC50 (P2X2/3) was 1 to 100 nM.

In the case of `Cc1ccc(CNC(=O)c2cc(-n3nncc3C)c3ncc(-c4ccc(C)s4)n3c2)cn1` [Example 28], the IC50 (P2X3) is reported as 1 to 100 nM and the IC50 (P2X2/3) is reported as 1 to 100 nM.

In the case of `Cc1ccc(-c2cnc3c(-n4nncc4C)cc(C(=O)N[C@@H](C)c4nnc[nH]4)cn23)s1` [Example 29], the IC50 (P2X3) is reported as 1 to 100 nM and the IC50 (P2X2/3) is reported as 100 to 1000 nM.

Work on `Cc1ccc(CNC(=O)c2cc(-n3nncc3C(F)(F)F)c3ncc(-c4ccc(C)s4)n3c2)cn1` [Example 30] yielded an IC50 (P2X3) of 1 to 100 nM and an IC50 (P2X2/3) of 1 to 100 nM.

In the case of `Cc1ncc(CNC(=O)c2cc(-n3nncc3C(F)F)c3ncc(-c4ccc(C)s4)n3c2)cn1` [Example 31], the IC50 (P2X3) is reported as 1 to 100 nM and the IC50 (P2X2/3) is reported as 1 to 100 nM.

`Cc1cnc(CNC(=O)c2cc(-n3nncc3C(F)F)c3ncc(-c4ccc(C)s4)n3c2)cn1` [Example 32] gave an IC50 (P2X3) of 1 to 100 nM and an IC50 (P2X2/3) of 1 to 100 nM.

`CCc1cnnn1-c1cc(C(=O)NCc2cnc(C)nc2)cn2c(-c3ccc(C)s3)cnc12` [Example 33] was tested, and the IC50 (P2X3) was 1 to 100 nM and the IC50 (P2X2/3) was 1 to 100 nM.

For `Cc1ccc(-c2cnc3c(-n4nncc4C4CC4)cc(C(=O)N[C@@H](C)c4nnc[nH]4)cn23)s1` [Example 34], the IC50 (P2X3) was 1 to 100 nM and the IC50 (P2X2/3) was 1 to 100 nM.

`COc1ncc(CNC(=O)c2cc(-n3nncc3C(F)F)c3ncc(-c4ccc(C)s4)n3c2)cn1` [Example 35] was tested, and the IC50 (P2X3) was 1 to 100 nM and the IC50 (P2X2/3) was 1 to 100 nM.

Work on `Cc1ccc(CNC(=O)c2cc(-n3nncc3C(F)F)c3ncc(-c4ncc(C)s4)n3c2)cn1` [Example 36] yielded an IC50 (P2X3) of 1 to 100 nM and an IC50 (P2X2/3) of 1 to 100 nM.

For `Cc1ccc(-c2cnc3c(-n4nncc4C(C)C)cc(C(=O)N[C@@H](C)c4nnc[nH]4)cn23)s1` [Example 37], the IC50 (P2X3) was 1 to 100 nM and the IC50 (P2X2/3) was 1 to 100 nM.

For `Cc1ncc(CNC(=O)c2cc(-n3nncc3C(F)(F)F)c3ncc(-c4ccc(C)s4)n3c2)cn1` [Example 39], the IC50 (P2X3) was 1 to 100 nM and the IC50 (P2X2/3) was 1 to 100 nM.

`Cc1ncc(CNC(=O)c2cc(-n3nncc3C(C)C)c3ncc(-c4ccc(C)s4)n3c2)cn1` [Example 40] was tested, and the IC50 (P2X3) was > 10000 nM and the IC50 (P2X2/3) was 1 to 100 nM.

`Cc1ncc(CNC(=O)c2cc(-n3nncc3C3CC3)c3ncc(-c4ccc(C)s4)n3c2)cn1` [Example 41] was tested, and the IC50 (P2X3) was 1 to 100 nM and the IC50 (P2X2/3) was 1 to 100 nM.

`COc1ncc(CNC(=O)c2cc(-n3nncc3C3CC3)c3ncc(-c4ccc(C)s4)n3c2)cn1` [Example 42] gave an IC50 (P2X3) of 1 to 100 nM and an IC50 (P2X2/3) of 1 to 100 nM.
